Experimental data from publication PMC7490411 (Signal Transduction and Targeted Therapy, 2020).

Experiments:
BTK = biological target: T1, BTK (Homo sapiens, UniProt Q06187); assay: target-engagement assay with biotinylated probe CHMFL-BTK-85B in REC-1 cell; type: binding; conditions: 2 h, 1 μM
T1 construct: purchased Invitrogen (Carlsbad, CA, USA)
Method: Cell lysates from REC-1 cells were treated with different concentrations of covalent inhibitor CHMFL-BTK-85 on ice for 2 hours. 1 µM biotinylated covalent probe (CHMFL-BTK-85B) was then added and lysates were incubated for another 2 hours. Uninhibited BTK was then captured by adding 50 µl Streptavidin agarose resin suspensions (Pierce) followed by an incubation for 1 hour. The resin was then spun down, washed briefly with 1X PBS buffer, and then resuspended in protein sample buffer for Western blot analysis.

[1] = test system: REC-1 cell (MCL)-inoculated xenograft; assay: REC-1 cell subcutaneous xenograft tumor model; type: in vivo; conditions: for TGI: REC-1 xenograft, 14 days
[2] = test system: ABL1(F317L)-nonphosphorylated; assay: KINOMEscan; type: binding; conditions: 1000 nM
[3] = test system: ABL1(Y253F)-phosphorylated; assay: KINOMEscan; type: binding; conditions: 1000 nM
ABL2 = assay: KINOMEscan; type: binding; conditions: 1000 nM
AKT3 = assay: KINOMEscan; type: binding; conditions: 1000 nM
AMPK-alpha1 = assay: KINOMEscan; type: binding; conditions: 1000 nM
ANKK1 = assay: KINOMEscan; type: binding; conditions: 1000 nM
ARK5 = assay: KINOMEscan; type: binding; conditions: 1000 nM
CAMK2G = assay: KINOMEscan; type: binding; conditions: 1000 nM
CDK5 = assay: KINOMEscan; type: binding; conditions: 1000 nM
CSF1R = assay: KINOMEscan; type: binding; conditions: 1000 nM
EGFR(L747-T751del,Sins) = assay: KINOMEscan; type: binding; conditions: 1000 nM
EPHA3 = assay: KINOMEscan; type: binding; conditions: 1000 nM
EPHA4 = assay: KINOMEscan; type: binding; conditions: 1000 nM
EPHB3 = assay: KINOMEscan; type: binding; conditions: 1000 nM
ERBB4 = assay: KINOMEscan; type: binding; conditions: 1000 nM
ERN1 = assay: KINOMEscan; type: binding; conditions: 1000 nM
FLT3(ITD,F691L) = assay: KINOMEscan; type: binding; conditions: 1000 nM
HCK = assay: KINOMEscan; type: binding; conditions: 1000 nM
IKK-alpha = assay: KINOMEscan; type: binding; conditions: 1000 nM
IKK-beta = assay: KINOMEscan; type: binding; conditions: 1000 nM
[4] = test system: JAK2(JH1domain-catalytic); assay: KINOMEscan; type: binding; conditions: 1000 nM
JNK1 = assay: KINOMEscan; type: binding; conditions: 1000 nM
JNK2 = assay: KINOMEscan; type: binding; conditions: 1000 nM
LRRK2 = assay: KINOMEscan; type: binding; conditions: 1000 nM
LTK = assay: KINOMEscan; type: binding; conditions: 1000 nM
MAK = assay: KINOMEscan; type: binding; conditions: 1000 nM
MAP4K4 = assay: KINOMEscan; type: binding; conditions: 1000 nM
MAPKAPK2 = assay: KINOMEscan; type: binding; conditions: 1000 nM
MARK4 = assay: KINOMEscan; type: binding; conditions: 1000 nM
MEK2 = assay: KINOMEscan; type: binding; conditions: 1000 nM
MELK = assay: KINOMEscan; type: binding; conditions: 1000 nM
MET = assay: KINOMEscan; type: binding; conditions: 1000 nM
MLK3 = assay: KINOMEscan; type: binding; conditions: 1000 nM
MRCKA = assay: KINOMEscan; type: binding; conditions: 1000 nM
NIK = assay: KINOMEscan; type: binding; conditions: 1000 nM
NLK = assay: KINOMEscan; type: binding; conditions: 1000 nM
PFCDPK1(P.falciparum) = assay: KINOMEscan; type: binding; conditions: 1000 nM
PIP5K1C = assay: KINOMEscan; type: binding; conditions: 1000 nM
QSK = assay: KINOMEscan; type: binding; conditions: 1000 nM
RET = assay: KINOMEscan; type: binding; conditions: 1000 nM
RIOK2 = assay: KINOMEscan; type: binding; conditions: 1000 nM
ROS1 = assay: KINOMEscan; type: binding; conditions: 1000 nM
STK36 = assay: KINOMEscan; type: binding; conditions: 1000 nM
TAK1 = assay: KINOMEscan; type: binding; conditions: 1000 nM
TIE1 = assay: KINOMEscan; type: binding; conditions: 1000 nM
TRKC = assay: KINOMEscan; type: binding; conditions: 1000 nM
[5] = test system: TYK2(JH1domain-catalytic); assay: KINOMEscan; type: binding; conditions: 1000 nM
[6] = test system: TYK2(JH2domain-pseudokinase); assay: KINOMEscan; type: binding; conditions: 1000 nM
TYRO3 = assay: KINOMEscan; type: binding; conditions: 1000 nM
WNK2 = assay: KINOMEscan; type: binding; conditions: 1000 nM

T1 sequence (Q06187 whole entry): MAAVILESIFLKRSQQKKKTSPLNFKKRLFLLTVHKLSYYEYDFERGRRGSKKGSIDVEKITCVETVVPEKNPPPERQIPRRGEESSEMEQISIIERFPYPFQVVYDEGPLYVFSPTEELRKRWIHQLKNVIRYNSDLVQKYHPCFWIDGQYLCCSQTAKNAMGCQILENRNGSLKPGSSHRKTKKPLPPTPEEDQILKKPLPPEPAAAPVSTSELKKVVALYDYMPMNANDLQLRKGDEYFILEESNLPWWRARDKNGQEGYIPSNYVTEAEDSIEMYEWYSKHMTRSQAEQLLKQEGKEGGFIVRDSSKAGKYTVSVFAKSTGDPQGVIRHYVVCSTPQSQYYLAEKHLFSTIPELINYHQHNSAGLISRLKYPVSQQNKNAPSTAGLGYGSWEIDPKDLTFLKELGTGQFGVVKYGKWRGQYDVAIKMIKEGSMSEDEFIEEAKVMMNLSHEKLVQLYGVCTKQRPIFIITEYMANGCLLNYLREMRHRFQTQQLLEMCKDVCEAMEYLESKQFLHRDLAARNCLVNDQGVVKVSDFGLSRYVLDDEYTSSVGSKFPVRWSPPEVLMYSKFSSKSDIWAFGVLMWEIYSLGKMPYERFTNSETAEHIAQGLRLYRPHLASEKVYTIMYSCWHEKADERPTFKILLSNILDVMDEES

C=CC(=O)Nc1cc(Nc2cc(-c3cccc(NC(=O)c4cc5c(s4)CCCC5)c3C)cn(C)c2=O)ccc1N1CCN(CC)CC1 [CHMFL-BTK-85]
covalent labelling of BTK in competition with CHMFL-BTK-85B (BTK): almost completely covalently label all of the available BTK | TGI ([1]; 100 mg/kg/day): 65% | TGI ([1]; 150 mg/kg/day): 79% | toxicity signs in REC-1 xenograft model ([1]; mouse, 100 mg/kg/day): without obvious signs of toxicity | Percent Control [2]: 100% | Percent Control [3]: 83% | Percent Control (ABL2): 88% | Percent Control (AKT3): 97% | Percent Control (AMPK-alpha1): 100% | Percent Control (ANKK1): 100% | Percent Control (ARK5): 97% | Percent Control (CAMK2G): 100% | Percent Control (CDK5): 98% | Percent Control (CSF1R): 90% | Percent Control (EGFR(L747-T751del,Sins)): 93% | Percent Control (EPHA3): 98% | Percent Control (EPHA4): 100% | Percent Control (EPHB3): 100% | Percent Control (ERBB4): 91% | Percent Control (ERN1): 100% | Percent Control (FLT3(ITD,F691L)): 77% | Percent Control (HCK): 100% | Percent Control (IKK-alpha): 100% | Percent Control (IKK-beta): 100% | Percent Control [4]: 100% | Percent Control (JNK1): 100% | Percent Control (JNK2): 100% | Percent Control (LRRK2): 100% | Percent Control (LTK): 100% | Percent Control (MAK): 89% | Percent Control (MAP4K4): 90% | Percent Control (MAPKAPK2): 86% | Percent Control (MARK4): 66% | Percent Control (MEK2): 100% | Percent Control (MELK): 99% | Percent Control (MET): 62% | Percent Control (MLK3): 91% | Percent Control (MRCKA): 100% | Percent Control (NIK): 100% | Percent Control (NLK): 100% | Percent Control (PFCDPK1(P.falciparum)): 100% | Percent Control (PIP5K1C): 99% | Percent Control (QSK): 100% | Percent Control (RET): 100% | Percent Control (RIOK2): 100% | Percent Control (ROS1): 98% | Percent Control (STK36): 99% | Percent Control (TAK1): 100% | Percent Control (TIE1): 87% | Percent Control (TRKC): 100% | Percent Control [5]: 100% | Percent Control [6]: 100% | Percent Control (TYRO3): 97% | Percent Control (WNK2): 87%
